The structures appear in SMILES notation.

System in the first data set: not listed separately
As to the kind of experiment: Partition coefficient (logD7.4). To be noted: octanol/water, pH 7.4.
`O=C(NN1CCCCC1)c1cc(-c2ccc(Cl)cc2)n(-c2ccc(Cl)cc2Cl)n1`: the logD came to 5.14.

The target of the next data set is Cannabinoid receptor 1 (Rattus norvegicus, UniProt P20272).
Cannabinoid receptor 1, sequence (P20272 whole entry): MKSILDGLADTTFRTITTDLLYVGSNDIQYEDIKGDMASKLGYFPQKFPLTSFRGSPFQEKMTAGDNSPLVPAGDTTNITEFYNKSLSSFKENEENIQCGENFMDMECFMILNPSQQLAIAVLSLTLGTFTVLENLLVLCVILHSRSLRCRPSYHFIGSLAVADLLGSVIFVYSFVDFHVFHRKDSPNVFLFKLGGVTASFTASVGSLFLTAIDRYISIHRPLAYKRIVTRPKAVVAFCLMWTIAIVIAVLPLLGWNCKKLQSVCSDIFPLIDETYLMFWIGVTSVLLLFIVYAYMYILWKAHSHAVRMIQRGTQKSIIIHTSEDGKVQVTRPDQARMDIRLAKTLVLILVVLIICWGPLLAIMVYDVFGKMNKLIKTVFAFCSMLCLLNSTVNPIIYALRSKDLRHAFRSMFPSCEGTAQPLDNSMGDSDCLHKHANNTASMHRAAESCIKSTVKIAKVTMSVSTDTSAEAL
Settings: not given
`COc1ccc(-c2c(Br)c(C(=O)NN3CCCCC3)nn2-c2ccccc2Cl)cc1` showed a Ki of 6.2 nM. This counts as single-digit nanomolar.

`Cc1c(C(=O)NN2CCCCC2)nn(-c2ccc(Cl)cc2Cl)c1-c1ccc(O)cc1` yielded an inhibitory constant (Ki) of 104 nM. Turning to `COc1ccc(-c2c(F)c(C(=O)NN3CCCCC3)nn2-c2ccccc2Cl)cc1`, the affinity corresponds to a Ki of 18.2 nM. The same measure, in the same setting: to `O=C(NN1CCCCC1)c1cc(-c2ccc(Cl)cc2)n(-c2ccc(Cl)cc2Cl)n1` belongs 9 nM; to `COc1ccc(-c2c(Br)c(C(=O)NN3CCCCCC3)nn2-c2ccc(Cl)cc2Cl)cc1`, 5.2 nM.

Take `Cc1c(C(=O)NN2CCCCC2)nn(-c2ccc(Cl)cc2Cl)c1-c1ccc(OC2CCCN2C(=O)OC(C)(C)C)cc1` (centres undefined): the Ki came out at 390 nM.

Compound `COc1ccc(-c2c(C)c(C(=O)NN3CCCCC3)nn2-c2ccccc2OC)cc1` displayed a Ki of 440 nM.

In turn, `Cc1c(C(=O)NN2CCCCC2)nn(-c2ccc(Cl)cc2Cl)c1-c1ccc2c(c1)OCO2` came in with a Ki of 7.1 nM.

Compound `O=C(NN1CCCCC1)c1nn(-c2ccc(Cl)cc2Cl)c(-c2ccc(Cl)cc2)c1Br` yielded a Ki of 1.4 nM. The same measure, in the same setting: in the case of `COc1ccc(-c2c(C)c(C(=O)NN3CCCCC3)nn2-c2ccccc2F)cc1` it was 37.8 nM.

The compound `COc1ccc(-c2c(C)c(C(=O)NN3CCCCC3)nn2-c2ccccc2Cl)cc1` had a Ki of 8 nM. The same measure, in the same setting: to `COc1ccc(-c2c(C)c(C(=O)NN3CCCCCC3)nn2-c2ccc(Cl)cc2Cl)cc1` belongs 7 nM; to `Cc1c(C(=O)NN2CCOCC2)nn(-c2ccc(Cl)cc2Cl)c1-c1ccc(I)cc1`, 4.5 nM.

Usually logD stands for the decadic logarithm of the distribution of all forms, ionised or not, between an organic phase and buffer at a given pH. Lower therefore signals a more hydrophilic compound. The Ki is the dissociation constant of the complex between target and ligand, obtained from inhibition or displacement. Low values mean a stronger hold on the target, high ones a looser hold on the target.

The values are drawn from ChEMBL document CHEMBL1144888, “Synthesis, structure-activity relationship, and evaluation of SR141716 analogues: development of central cannabinoid receptor ligands with lower lipophilicity” (J Med Chem, 2003).
